One assay relates to gray mold fungus (Botrytis cinerea). Kind of assay: Cucumber leaf disk preventive test against gray mold fungus. In kind it is in vivo. The settings on record: Botrytis cinerea, foliar, 96 h, read-out: preventive value (%). As for the experimental part:
True leaf of cucumber is punched out with cork borer to 13 mm in diameter to prepare a leaf disk. In 24 well microwell plate that is dispensed with 1 ml 0.8% water agar, the leaf disk is placed such that the upper side of the leaf is in an upward direction. Thereto is added 20 micro liter a testing solution prepared by mixing a dimethyl sulfoxide solution of the present compound (racemate) and a dimethyl sulfoxide solution of isopyrazam, boscalid or penthiopyrad to a predetermined concentration to treat the leaf disk.
After confirming that the testing medical solution is dried, conidium of gray mold fungus (Botrytis cinerea) is suspended into potato dextrose broth (DIFCO) in a density of about 10^5 conidium/mL and is then subjected to a spray inoculation. After leaving to stand the leaf disk in a growth chamber set up at 15° C. for four days, an onset area on the leaf is measured and then calculated an onset area rate (hereinafter, referred to as an onset area rate of treated group).
The same operation is carried out with 20 micro liter water instead of 20 micro liter a testing medicine solution to calculate an onset area rate (hereinafter, referred to an onset area rate of non-treated group).
A preventive value is calculated from the above onset area rate of treated group and the onset area rate of non-treated group by the following equation: Preventive value(%)=100×(A−B)/A
A: an onset area rate of treated group
B: an onset area rate of non-treated group […]
For comparison, the same operations as described in Test Example 1 are carried out with the exception that the testing medicine solution is substituted with a predetermined concentration of each dimethyl sulfoxide solution of isopyrazam, boscalid or penthiopyrad, so as to calculate respective preventive values.
Regarding `COCC(=O)N(c1c(C)cccc1C)N1CCOC1=O` [oxadixyl], the pest or weed control at 0.5 ppm was determined as 10% and the pest or weed control at 5 ppm was found to be 15%.

In the case of `C[C@@H](NC(=O)C(C#N)C(C)(C)C)c1ccc(Cl)cc1Cl` (stereo partly drawn) [diclocymet], the pest or weed control at 0.5 ppm is 10% and the pest or weed control at 5 ppm was 15%.

The same assay, now with this note: Botrytis cinerea, foliar, 96 h; carboxamide compound alone, 0.5 ppm; cucumber leaf disk, 15° C., four days; read-out: preventive value (%).
`O=C(NCCc1ncc(C(F)(F)F)cc1Cl)c1ccccc1C(F)(F)F` [fluopyram]: the pest or weed control at 0.5 ppm was determined as 35%.

As to `O=C(Nc1ccccc1-c1ccc(Cl)cc1)c1cccnc1Cl` [boscalid], the pest or weed control at 0.5 ppm came to 49%.

On to `COc1ccc(C(=CC(=O)N2CCOCC2)c2ccc(Cl)cc2)cc1OC` [dimethomorph], for which the pest or weed control at 0.5 ppm worked out at 10%.

Consider `O=C(Nc1ccccc1)N(Cc1ccc(Cl)cc1)C1CCCC1` [pencycuron], for which the pest or weed control at 0.5 ppm was found to be 10%.

As for `CC1(C(=O)Nc2ccc(O)c(Cl)c2Cl)CCCCC1` [fenhexamid], the pest or weed control at 0.5 ppm came to 20%.

On to `CC(C)CC(C)c1sccc1NC(=O)c1cn(C)nc1C(F)(F)F` (stereo not drawn) [penthiopyrad], for which the pest or weed control at 0.5 ppm came to 39%.

The assay is the same for the next values; noted with them: Botrytis cinerea, foliar, 96 h; carboxamide compound alone, 5.0 ppm; cucumber leaf disk, 15° C., four days; read-out: preventive value (%).
In the case of `O=C(NCCc1ncc(C(F)(F)F)cc1Cl)c1ccccc1C(F)(F)F` [fluopyram], the pest or weed control at 5 ppm was 45%.

For the compound `O=C(Nc1ccccc1-c1ccc(Cl)cc1)c1cccnc1Cl` [boscalid], the pest or weed control at 5 ppm was 56%.

On to `COc1ccc(C(=CC(=O)N2CCOCC2)c2ccc(Cl)cc2)cc1OC` [dimethomorph], for which the pest or weed control at 5 ppm is 15%.

As to `O=C(Nc1ccccc1)N(Cc1ccc(Cl)cc1)C1CCCC1` [pencycuron], the pest or weed control at 5 ppm was 15%.

On to `CC1(C(=O)Nc2ccc(O)c(Cl)c2Cl)CCCCC1` [fenhexamid], for which the pest or weed control at 5 ppm stood at 57%.

Consider `CC(C)CC(C)c1sccc1NC(=O)c1cn(C)nc1C(F)(F)F` (stereo not drawn) [penthiopyrad], for which the pest or weed control at 5 ppm is 45%.

The assay is the same for the next values; noted with them: carboxamide compound alone, 0.5 ppm; cucumber leaf disk, 15° C., four days.
As for `CC(C)C1C2CCC1c1c(NC(=O)c3cn(C)nc3C(F)F)cccc12` (stereo not drawn) [isopyrazam], the “preventive value (%)” value was 20%.

Turning to `Cc1nn(C)c(Cl)c1C(=O)Nc1cccc2c1C(C)OC2(C)C` (stereo not drawn) [furametpyr], the “preventive value (%)” value turned out to be 15%.

Regarding `N#Cc1ccccc1NC(=O)c1snc(Cl)c1Cl` [isotianil], the “preventive value (%)” value is recorded as 10%.

On to `COC(=O)[C@@H](C)N(C(=O)Cc1ccccc1)c1c(C)cccc1C` [benalaxyl-M], for which the “preventive value (%)” value came to 10%.

Still in this assay, the particulars now being: carboxamide compound alone, 5.0 ppm; cucumber leaf disk, 15° C., four days.
With `CC(C)C1C2CCC1c1c(NC(=O)c3cn(C)nc3C(F)F)cccc12` (stereo not drawn) [isopyrazam], the “preventive value (%)” value is 40%.

Turning to `Cc1nn(C)c(Cl)c1C(=O)Nc1cccc2c1C(C)OC2(C)C` (stereo not drawn) [furametpyr], the “preventive value (%)” value was 20%.

With `N#Cc1ccccc1NC(=O)c1snc(Cl)c1Cl` [isotianil], the “preventive value (%)” value is listed as 25%.

For the compound `COC(=O)[C@@H](C)N(C(=O)Cc1ccccc1)c1c(C)cccc1C` [benalaxyl-M], the “preventive value (%)” value stood at 15%.
